Experimental data published in patent US20210317099A1, “SAFER, POTENT, AND FAST ACTING ANTIMICROBIAL AGENTS” (Purdue Research Foundation, priority 2020, published 2021).
In brackets after ≈: the same amount, converted by molar mass. Where two headings read alike, the source gives them in different places.

Columns and labels:
[1] = tested on: Staphylococcus aureus NRS384 (MRSA USA300); assay: Initial MIC screening, broth microdilution (CLSI); type: cell-based; conditions: for potency compared with control antibiotic: MRSA USA300, Table 1 assay; for MIC: Staphylococcus aureus NRS384 (MRSA USA300), broth microdilution, visual reading
In short: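 MRSA USA300 grown 24 h at 37 °C on tryptic soy agar, then adjusted to 5×10^5 CFU/ml in cation-adjusted Mueller-Hinton broth. Compounds serially diluted 64 to 0.5 μg/mL per CLSI broth microdilution; MIC recorded.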

[2] = tested on: Enterococcus faecium ATCC 700221 (VRE); assay: MIC, Gram-positive panel; type: cell-based; conditions: Enterococcus faecium ATCC 700221 (VRE); read-out: MIC
In short: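 Overnight TSA cultures (37° C) → 0.5 McFarland suspension → dilution in CAMHB; test compounds serially diluted in inoculated broth; aerobic incubation at 37° C, 18-20 h.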

VRSA 10 = assay: MIC, Gram-positive panel; type: cell-based; conditions: Staphylococcus aureus; VRSA 10; read-out: MIC
In short: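 Broth microdilution: staphylococci grown overnight on tryptone soya agar at 37° C, suspended to 0.5 McFarland and diluted in cation-adjusted Mueller-Hinton broth. Compounds were serially diluted in the bacteria-containing medium, and plates were incubated aerobically at 37° C for 18-20 hours.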

MRSA USA 400 = assay: Time-kill assay; type: cell-based, Staphylococcus aureus; conditions: 5×MIC; for time required for complete eradication of the bacterial count: MRSA USA 400, 24-hour incubation
Method: In order to the mode of killing of methylene lactone compounds, a time kill assay was performed against MRSA USA 400 as described previously. MRSA USA400 cells in logarithmic growth phase (OD600˜1.00) were diluted to 6.03×10^6 colony-forming units (CFU/mL) and exposed to concentrations equivalent to 5×MIC (in triplicate) of 148, 149, 151, 155, 158 and vancomycin in Tryptic soy broth. Aliquots (100 μL) were collected from each treatment after 0, 2, 4, 6, 8, 12, and 24 hours of incubation at 37° C. and subsequently serially diluted in PBS. Bacteria were then transferred to Tryptic soy agar plates and incubated at 37° C. for 18-20 hours before viable CFU/mL was determined (FIG. 1).
DMSO (solvent for the compounds) served as a negative control and vancomycin served as a control drug. The error bars represent standard deviation values obtained from triplicate samples used for each compound/antibiotic studied.

[3] = In vitro cytotoxicity, MTS assay; type: cell-based, human; conditions: human, Caco-2 cells; Caco-2, two hours incubation, MTS; read-out: 50% cytotoxic concentration (CC50)
Method: Compounds 144, 148, 151, 155, 158, and 187 were assayed (at concentrations of 16, 32, and 64 μg/mL) against a human colorectal adenocarcinoma (Caco-2) cell to determine the potential toxic effect to mammalian cells in vitro. Briefly, cells were cultured in Dulbecco's Modified Eagle Medium (DMEM) supplemented with 10% fetal bovine serum (FBS), non-essential amino acids (1×), penicillin-streptomycin at 37° C. in presence of 5% CO2. Control cells received DMSO alone at a concentration equal to that in drug-treated wells. The cells were incubated with the compounds (in triplicate) in a 96-well plate at 37° C. with 5% CO2 for two hours. This was followed by the subsequent addition of the assay reagent MTS 3-(4,5-dimethylthiazol-2-yl)-5-(3-carboxymethoxyphenyl)-2-(4-sulfophenyl)-2H-tetrazolium) (Promega, Madison, Wis., USA) and the plate was incubated for three to four hours. Absorbance readings (at OD490) were recorded using a kinetic microplate reader (Molecular Devices, Sunnyvale, Calif., USA). The quantity of viable cells after treatment with each compound was expressed as a percentage of the viability of DMSO-treated control cells (average of triplicate wells±standard deviation).
FIG. 3. Analyzing the toxicity of 144, 148, 151, 155, 158, and 187 compounds (tested in triplicates at 16, 32 and 64 μg/mL) against human colorectal cells (Caco-2) using the MTS 3-(4,5-dimethylthiazol-2-yl)-5-(3-carboxymethoxyphenyl)-2-(4-sulfophenyl)-2H-tetrazolium) assay. Results are presented as percent viable cells relative to DMSO (negative control) to determine a baseline measurement for the cytotoxic impact of each compound. The absorbance values represent an average of three samples analyzed for each compound. Error bars represent standard deviation values. The data were analyzed via a two-way ANOVA with post-hoc Dunnett's test for multiple comparisons. An asterisk (*) denotes statistical significance (P<0.05) between results for compounds and DMSO.

[4] = tested on: total proteases production in MRSA USA300; assay: Inhibition of staphylococcal total proteases production, skimmed milk method; type: cell-based, Staphylococcus aureus; conditions: MRSA USA300, 0.25×MIC, untreated = 100%
Method: The modified skimmed milk method was utilized to investigate the protease inhibitory activities of BHS compounds as described previously. In brief, overnight culture of MRSA300 in TSB, with and without subinhibitory concentrations of compounds (in triplicate), was centrifuged at 14000×g for 10 minutes. Then, a total volume of 500 μL of culture supernatant was incubated with 1 mL skimmed milk (1.25%) at 37° C. for 1 hour. Afterwards, the OD600 was measured to indicate the degree of clearance of skimmed milk. Higher OD values indicate lower proteolytic activity and greater protease inhibitory activity.
FIG. 4. Influence of BHS compounds on the staphylococcal total protease production. OD600 was measured following overnight culturing of MRSA USA300 in TSB in presence and absence of 0.25×MIC of 148, 149, 155, 158 and vancomycin followed by incubation of supernatants with skim milk for 1 hour at 37° C. The Data are presented as percent production (means±standard deviation). DMSO (the solvent for the compounds that served as a negative control). Vancomycin served as the control antibiotic. The values represent an average (means±standard deviation) of four samples analyzed for each compound/antibiotic. Error bars represent standard deviation values. An asterisk (*) denotes statistical significance (P<0.05) between results for compounds 148, 149, 155, 158 and vancomycin analyzed via unpaired t test ([…]).

[5] = Staphylococcus aureus, read-out: MIC

**Q.** Which “potency compared with control antibiotic” value [1] does the source give for `C=C(C(=O)OC)C(c1ccc2ccccc2c1)C(O)c1cccc2ccccc12` (centres unmarked) [Compound 148] here?
**A.** The value was “potency comparable to vancomycin”.

**Q.** What about the MIC [1] of the same compound?
**A.** Its MIC is 2 µg/mL (≈ 5.23 µM).

**Q.** What about the MIC [1, 5] of the same compound?
**A.** The MIC was 1 to 2 µg/mL (≈ 2.61 to 5.23 µM).

**Q.** And the MIC [2]?
**A.** The MIC was over 64 µg/mL.

**Q.** And the MIC (VRSA 10)?
**A.** Its MIC is 2 µg/mL (≈ 5.23 µM).

**Q.** What about the “time required for complete eradication of the bacterial count” value (MRSA USA 400) of the same compound?
**A.** The value was 12 h.

**Q.** And the “reduction in the bacterial count after 6 hours” value (MRSA USA 400; MRSA USA 400, after 6 hours)?
**A.** Its value is 3 log10.

**Q.** And the “reduction in the bacterial count after 6 hours (percent)” value (MRSA USA 400; MRSA USA 400, after 6 hours)?
**A.** Its value is 99.9%.

**Q.** What about the CC50 at 2 h [3] of the same compound?
**A.** Its CC50 at 2 h is over 64 µg/mL.

**Q.** And the total protease production [4]?
**A.** Its total protease production is 87%.

**Q.** What does the source list for `C=C1C(=O)O[C@H](c2ccccc2)[C@@H]1c1cccc2ccccc12` [Compound 151]?
**A.** potency compared with control antibiotic [1]: potency similar to the oxazolidinone class of antimicrobial drug linezolid; MIC [1]: 1 µg/mL (≈ 3.33 µM); MIC [1, 5]: 1 to 2 µg/mL (≈ 3.33 to 6.66 µM); MIC [2]: > 64 µg/mL; MIC (VRSA 10): 2 µg/mL (≈ 6.66 µM); time required for complete eradication of the bacterial count (MRSA USA 400): 2 h; CC50 at 2 h [3]: > 64 µg/mL

**Q.** What does the source list for `C=C1C(=O)O[C@H](c2cccc3ccccc23)[C@@H]1c1ccc2ccccc2c1` [Compound 155]?
**A.** potency compared with control antibiotic [1]: potency comparable to vancomycin; MIC [1]: 2 µg/mL (≈ 5.71 µM); MIC [1, 5]: 1 to 2 µg/mL (≈ 2.85 to 5.71 µM); MIC [2]: > 64 µg/mL; MIC (VRSA 10): 1 µg/mL (≈ 2.85 µM); time required for complete eradication of the bacterial count (MRSA USA 400): 2 h; total protease production [4]: 65%

**Q.** Which “potency compared with control antibiotic” value [1] does the source give for `C=C1C(=O)O[C@H](c2ccc3ccccc3c2)[C@@H]1c1ccc2ccccc2c1` [Compound 158] here?
**A.** Its value is “potency comparable to vancomycin”.

**Q.** What about the MIC [1] of the same compound?
**A.** Its MIC is 2 µg/mL (≈ 5.71 µM).

**Q.** What about the MIC [1, 5] of the same compound?
**A.** Its MIC is 1 to 2 µg/mL (≈ 2.85 to 5.71 µM).

**Q.** And the MIC [2]?
**A.** Its MIC is over 64 µg/mL.

**Q.** And the MIC (VRSA 10)?
**A.** The MIC was 1 µg/mL (≈ 2.85 µM).

**Q.** And the “time required for complete eradication of the bacterial count” value (MRSA USA 400)?
**A.** The value was 2 h.

**Q.** What about the CC50 at 2 h [3] of the same compound?
**A.** Its CC50 at 2 h is over 64 µg/mL.

**Q.** And the total protease production [4]?
**A.** The total protease production was 56%.
